Measurements taken from patent US10273242B2, “Compound inhibiting activities of BTK and/or JAK3 kinases” (BEIJING HANMI PHARMACEUTICAL CO., LTD., priority 2013, dated 2019).

Assays:
[1] = system: p-BTK (pY223) in Ramos cells; test: p-BTK inhibition assay in Ramos cells (Western blot); assay type: cell-based; details: compound 1 hour, anti-human IgM stimulation
Protocol: Ramos cells (purchased from the Beijing Union Medical College) with starvation culture for 1 hour were treated with the compounds of the present invention for 1 hour, and then rinsed with PBS buffer (pH 7.2) to remove the compounds. Then they were resuspended in 100 μL of serum-free culture medium containing 1 μM of anti-human IgM F(ab′)2 (purchased from SBA company, No.: 2022-01) and stimulated on ice for 10 minutes. The cells were rinsed with PBS buffer (pH 7.2) to remove IgM and resuspended in 100 μL of protein lysis buffer (purchased from Sigma, No.: C2978), and then prepared and quantified the protein sample. 100 μg of the protein sample were taken and loaded on polyacrylamide gels for electrophoresis under 200V of voltage. After electrophoresis, protein blots were transferred to a PVDF membrane. […] The protein expression was detected by coloration using ECL substrate (purchased from GE, No.: RPN2109).

DBA/1J mice = test: Type II collagen-induced arthritis (CIA) model in DBA/1J mice; assay type: in vivo; details: 3 mg/kg and 10 mg/kg orally once a day for 14 days
From the text: The CIA model is a widely-used animal model in the study of drugs for the treatment of rheumatoid arthritis in human. The experimental animals used in this experiment are DBA/1J mice (male, 6 to 8 weeks of age, purchased from Shanghai Silaike Laboratroy Animal Co., Ltd., China). Mice were housed in an IVC system.
In order to induce the mice CIA model, a bovine type II collagen (CII) (purchased from Chondrex company, No.: 20022) solution was emulsified with the same volume of complete Freund's adjuvant (CFA) (purchased from Sigma-Aldrich, No.: F5881) using an electronic homogenizer to prepare an emulsion. Then, 70 μL of the prepared emulsion was intradermally injected into the base of the tail of the mice as a primary immunization. Three weeks after the primary immunization, one booster immunization was carried out. […] According to the following criteria, Mice were evaluated for the severity of arthritis using an established scoring system ranging from 0 to 4 (0 score: no evidence of edema or swelling; 1 score: mild edema and redness confined to the ankle joint or tarsal; 2 scores: mild edema and redness, from the ankle joint to the tarsal; 3 scores: moderate edema and redness, from the ankle joint to the metatarsal; and 4 scores: severe edema and redness, from the ankle to the whole instep and toes, or ankylosis of the ankle or wrist joints). […]

Compound: C=CC(=O)N1CC[C@@H](Nc2nc(Nc3cc(C)ns3)nc3ccsc23)C1 [Example 132, (R)-1-(3-((2-((3-methyl-isothiazol-5-yl)amino)thieno[3,2-d]pyrimidin-4-yl)amino)pyrrolidin-1-yl)prop-2-en-1-one]
- inhibition of expression of p-BTK [1]: significantly inhibit the expressions of p-BTK and p-PLCγ2 in Ramos cells in a dose-dependent manner
- therapeutic effect on arthritis (arthritis severity scores) (DBA/1J mice): good therapeutic effect on arthritis in the CIA model at the designed doses in a dose dependent manner
